Patent publication US20230339970A1, “CASEIN KINASE 1 DELTA MODULATORS” (priority 2020, published 2023)

What was measured:
human CSNK1D = biological target: T1, human CSNK1D (Homo sapiens, UniProt P48730); assay: Whole Cell nBRET CSNK1D Binding Assay; conditions: living CHO cells stably expressing human CSNK1D tagged with nanoluciferase; NanoBret tracer 130 nM; 2 hours at 37 C
T1 construct: expressed in transfected cells

[1] = biological target: T2, human recombinant GST cleaved CSNK1D (Homo sapiens, UniProt P48730); assay: Purified Enzyme Assay (ADP-Glo CSNK1D Kinase Assay); assay type: biochemical; conditions: 2 nM CSNK1D; peptide substrate 150 μM; ATP 20 μM; 45 minutes at room temperature
T2 construct: GST (cleaved yes); purchased University of Dundee clone DU 19064
Experimental: In this assay, CSNK1D phosphorylates a substrate peptide PLSRTL-pS-VASLPGL in the presence of ATP. […] This assay monitors CSNK1D kinase activity by measuring the amount of ADP produced in the assay.
The substrate mix is added to each well of a low volume, 384-well, white opaque plate. Test compounds were diluted in HBSS and added in a dose-response to the plate.
The total volume of each reaction is 5 ul (2 μL of substrate mix, 1 μL of diluted compounds, and 2 μL of human recombinant CSNK1D). The plates are incubated for 45 minutes at room temperature.
ADP was quantified using the ADP-Glo™ Kinase Assay. ADP-Glo Reagent (5 μL) was added to each well. After a 1 hour incubation at room temperature, Kinase Detection Reagent (10 μL) was added to each well and incubated for 30 minutes. […] The raw data from the Envision is used to calculate percent activity.

T1 sequence (P48730 whole entry): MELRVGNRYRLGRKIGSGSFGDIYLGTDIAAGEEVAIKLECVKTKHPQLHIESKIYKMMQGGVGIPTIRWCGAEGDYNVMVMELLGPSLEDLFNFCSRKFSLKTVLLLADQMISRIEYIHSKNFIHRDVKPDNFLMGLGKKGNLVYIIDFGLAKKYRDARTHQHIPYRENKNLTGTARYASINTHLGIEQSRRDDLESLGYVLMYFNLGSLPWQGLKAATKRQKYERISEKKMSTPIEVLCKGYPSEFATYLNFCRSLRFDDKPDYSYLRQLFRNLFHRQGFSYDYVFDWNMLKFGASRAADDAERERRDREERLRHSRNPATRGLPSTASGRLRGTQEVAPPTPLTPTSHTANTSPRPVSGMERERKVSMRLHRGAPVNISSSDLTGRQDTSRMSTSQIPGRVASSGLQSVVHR
T2 sequence (P48730 whole entry): as above

Row | SMILES | IC50 (human CSNK1D) [nM] | IC50 [1] [nM]
1 | C[C@H]1COCc2c(-c3ccnc4[nH]ncc34)c(-c3ccc(F)cc3)nn21 (single isomer, unassigned) [Example 91, (*S)-2-(4-Fluorophenyl)-7-methyl-3-(1H-pyrazolo[3,4-b]pyridin-4-yl)-6,7-dihydro-4H-pyrazolo[5,1-c][1,4]oxazine] | 151 | 8
2 | CC1(C)CCc2c(-c3ccnc4[nH]ncc34)c(-c3ccc(F)cn3)nn2C1 [Example 49, 4-[2-(5-Fluoro-2-pyridyl)-6,6-dimethyl-5,7-dihydro-4H-pyrazolo[1,5-a]pyridin-3-yl]-1H-pyrazolo[3,4-b]pyridine] | 11 | 1
3 | Cc1nc2cc(-c3c(-c4ccc(F)cn4)nn4c3COC(C)(C)C4)ccn2n1 [Example 386, 2-(5-Fluoropyridin-2-yl)-6,6-dimethyl-3-(2-methyl-[1,2,4]triazolo[1,5-a]pyridin-7-yl)-6,7-dihydro-4H-pyrazolo[5,1-c][1,4]oxazine] | 9660 | 162
4 | C[C@H]1OCc2c(-c3ccnc4[nH]ncc34)c(-c3ccc(F)cn3)nn2[C@H]1C (single isomer, unassigned) [Example 116, (6*R,7*S)-2-(5-Fluoropyridin-2-yl)-6,7-dimethyl-3-(1H-pyrazolo[3,4-b]pyridin-4-yl)-6,7-dihydro-4H-pyrazolo[5,1-c][1,4]oxazine] | 926 | 38
5 | COc1ccc2nccc(-c3c(-c4ccc(F)cn4)nn4c3OCCC4)c2n1 [Example 190, 2-(5-Fluoro-2-pyridyl)-3-(6-methoxy-1,5-naphthyridin-4-yl)-6,7-dihydro-5H-pyrazolo[5,1-b][1,3]oxazine] | 215 | 4
6 | Cn1cc2c(-c3c(-c4ccc(F)cn4)nn4c3COC(C)(C)C4)ccnc2n1 [Example 158, 2-(5-Fluoro-2-pyridyl)-6,6-dimethyl-3-(2-methylpyrazolo[3,4-b]pyridin-4-yl)-4,7-dihydropyrazolo[5,1-c][1,4]oxazine] | > 10000 | 6870
7 | CC1(C)Cn2nc(-c3ccc(F)cn3)c(-c3ccnc(C(F)F)c3)c2CO1 [Example 129, 3-(2-(Difluoromethyl)pyridin-4-yl)-2-(5-fluoropyridin-2-yl)-6,6-dimethyl-6,7-dihydro-4H-pyrazolo[5,1-c][1,4]oxazine] | 440 | 36
8 | Cc1cc(-c2c(-c3ccc(F)cn3)nn3c2O[C@H](C)CC3)c2cn[nH]c2n1 (single isomer, unassigned) [Example 201, (*R)-2-(5-Fluoro-2-pyridyl)-5-methyl-3-(6-methyl-1H-pyrazolo[3,4-b]pyridin-4-yl)-6,7-dihydro-5H-pyrazolo[5,1-b][1,3]oxazine] | 246 | 17
9 | C[C@@H]1[C@@H](C)OCc2c(-c3ccnc4[nH]ncc34)c(-c3ccc(F)cn3)nn21 (stereo in doubt) [Example 118, (6*R,7*R)-2-(5-Fluoropyridin-2-yl)-6,7-dimethyl-3-(1H-pyrazolo[3,4-b]pyridin-4-yl)-6,7-dihydro-4H-pyrazolo[5,1-c][1,4]oxazine] | 1160 | 49
10 | Cc1cc(-c2c(-c3ccc(F)cn3)nn3c2COCC3)c2cn[nH]c2n1 [Example 79, 2-(5-Fluoro-2-pyridyl)-3-(6-methyl-1H-pyrazolo[3,4-b]pyridin-4-yl)-6,7-dihydro-4H-pyrazolo[5,1-c][1,4]oxazine] | 227 | 7
11 | Cc1n[nH]c2nccc(-c3c(-c4ccc(F)cc4)nn4c3COC(C(F)(F)F)C4)c12 (single isomer, unassigned) [Example 373, (*R)-2-(4-Fluorophenyl)-3-(3-methyl-1H-pyrazolo[3,4-b]pyridin-4-yl)-6-(trifluoromethyl)-6,7-dihydro-4H-pyrazolo[5,1-c][1,4]oxazine] | > 10000 | 306

Further lines, results first:

Row | IC50 (human CSNK1D) [nM] | IC50 [1] [nM] | SMILES
12 | 55 | 3 | Fc1ccc(-c2nn3c(c2-c2ccnc4[nH]ncc24)C2CCC3CC2)nc1 [Example 65, 2-(5-Fluoropyridin-2-yl)-3-(1H-pyrazolo[3,4-b]pyridin-4-yl)-4,5,6,7-tetrahydro-4,7-ethanopyrazolo[1,5-a]pyridine]
13 | 17 | 2 | [2H]C([2H])([2H])C1(C([2H])([2H])[2H])Cn2nc(-c3ccc(F)cc3)c(-c3nc(C)nc4[nH]ncc34)c2CO1 [Example 410, 2-(4-Fluorophenyl)-6,6-bis(methyl-d3)-3-(6-methyl-1H-pyrazolo[3,4-d]pyrimidin-4-yl)-6,7-dihydro-4H-pyrazolo[5,1-c][1,4]oxazine]
14 | 137 | 9 | [2H]C([2H])([2H])C1(C([2H])([2H])[2H])Cn2nc(-c3ccc(F)cn3)c(-c3c(F)cnc4[nH]nc(C)c34)c2CO1 [Example 404, 3-(5-Fluoro-3-methyl-1H-pyrazolo[3,4-b]pyridin-4-yl)-2-(5-fluoropyridin-2-yl)-6,6-bis(methyl-d3)-6,7-dihydro-4H-pyrazolo[5,1-c][1,4]oxazine]
15 | 76 | 9 | [2H]C([2H])([2H])[C@]1(C(F)(F)F)Cn2nc(-c3ccc(F)cn3)c(-c3cc(C)nc4[nH]nc(C)c34)c2CO1 (single isomer, unassigned) [Example 428, (*R)-3-(3,6-Dimethyl-1H-pyrazolo[3,4-b]pyridin-4-yl)-2-(5-fluoropyridin-2-yl)-6-(methyl-d3)-6-(trifluoromethyl)-6,7-dihydro-4H-pyrazolo[5,1-c][1,4]oxazine]
16 | 48 | 9 | CC1(C)CCc2c(-c3c(F)cnc4[nH]ncc34)c(-c3ccc(F)cn3)nn2C1 [Example 282, 5-Fluoro-4-[2-(5-fluoro-2-pyridyl)-6,6-dimethyl-5,7-dihydro-4H-pyrazolo[1,5-a]pyridin-3-yl]-1H-pyrazolo[3,4-b]pyridine]
17 | 40 | 8 | Cc1nc2[nH]ncc2c(-c2c(-c3ccc(F)cn3)nn3c2CC[C@H]2[C@@H]3C2(F)F)c1F (single isomer, unassigned) [Example 357, (5a*S,6a*R)-6,6-Difluoro-3-(5-fluoro-6-methyl-1H-pyrazolo[3,4-b]pyridin-4-yl)-2-(5-fluoropyridin-2-yl)-5,5a,6,6a-tetrahydro-4H-cyclopropa[e]pyrazolo[1,5-a]pyridine]
18 | 51 | 4 | C[C@@H]1CCc2c(-c3ccnc4[nH]ncc34)c(-c3ccc(F)cc3)nn21 [Example 16, 4-[(6R)-2-(4-Fluorophenyl)-6-methyl-5,6-dihydro-4H-pyrrolo[1,2-b]pyrazol-3-yl]-1H-pyrazolo[3,4-b]pyridine]
19 | 9 | 1 | Cc1nc(-c2c(-c3ccc(F)cc3)nn3c2CC[C@]2(C3)CC2(F)F)c2cn[nH]c2n1 (single isomer, unassigned) [Example 336, (*R)-2,2-Difluoro-2′-(4-fluorophenyl)-3′-(6-methyl-1H-pyrazolo[3,4-d]pyrimidin-4-yl)-4′,5′-dihydro-7′H-spiro[cyclopropane-1,6′-pyrazolo[1,5-a]pyridine]]
20 | 25 | 3 | CC1(C)Cn2nc(-c3ccc(F)cn3)c(-c3ccnc4[nH]nc(Br)c34)c2CO1 [Example 152, 3-(3-Bromo-1H-pyrazolo[3,4-b]pyridin-4-yl)-2-(5-fluoropyridin-2-yl)-6,6-dimethyl-6,7-dihydro-4H-pyrazolo[5,1-c][1,4]oxazine]
21 | 48 | 3 | Fc1ccc(-c2nn3c(c2-c2ccnc4[nH]ncc24)C2CC2C3)nc1 (racemic) [Example 23, 2-(5-Fluoropyridin-2-yl)-3-(1H-pyrazolo[3,4-b]pyridin-4-yl)-3b,4,4a,5-tetrahydrocyclopropa[3,4]pyrrolo[1,2-b]pyrazole]
22 | 3 | 1 | Cc1cc(-c2c(-c3ccc(F)cc3)nn3c2CC(C)(C)C3)c2cn[nH]c2n1 [Example 232, 4-[2-(4-Fluorophenyl)-5,5-dimethyl-4,6-dihydropyrrolo[1,2-b]pyrazol-3-yl]-6-methyl-1H-pyrazolo[3,4-b]pyridine]
23 | 3 | 1 | Fc1ccc(-c2nn3c(c2-c2ccnc4[nH]ncc24)C[C@@H]2[C@H](C3)C2(F)F)cc1 (stereo in doubt) [Example 362, (4a*R,5a*R)-5,5-Difluoro-2-(4-fluorophenyl)-3-(1H-pyrazolo[3,4-b]pyridin-4-yl)-4a,5,5a,6-tetrahydro-4H-cyclopropa[d]pyrazolo[1,5-a]pyridine]
24 | 37 |  | CC1(CC2COC2)CCc2c(-c3ccnc4[nH]ncc34)c(-c3ccc(F)cn3)nn2C1 (single isomer, unassigned) [Example 321, (*S)-4-(2-(5-Fluoropyridin-2-yl)-6-methyl-6-(oxetan-3-ylmethyl)-4,5,6,7-tetrahydropyrazolo[1,5-a]pyridin-3-yl)-1H-pyrazolo[3,4-b]pyridine]
25 | 15 |  | FCC1Cn2nc(-c3ccc(F)cc3)c(-c3cnc4[nH]ncc4c3)c2CO1 (stereo not shown) [Example 103, 6-(Fluoromethyl)-2-(4-fluorophenyl)-3-(1H-pyrazolo[3,4-b]pyridin-5-yl)-6,7-dihydro-4H-pyrazolo[5,1-c][1,4]oxazine]
26 | 54 |  | Fc1ccc(-c2nn3c(c2-c2ccnc4[nH]ncc24)COC(C(F)(F)F)C3)cc1 (stereo not shown) [Example 99, 2-(4-Fluorophenyl)-3-(1H-pyrazolo[3,4-b]pyridin-4-yl)-6-(trifluoromethyl)-6,7-dihydro-4H-pyrazolo[5,1-c][1,4]oxazine]
